Data on 15 molecules can be found in US9334285B2, “Aldosterone synthase inhibitors” (Boehringer Ingelheim International GmbH, priority 2014, dated 2016).

For test [1], the target named is cortisol synthase (CYP11B1) (Macaca fascicularis, UniProt A0A2K5ULY1). The experiment in a line: Inhibition of cortisol synthesis, cynomolgus adrenal mitochondria, 11-deoxycortisol as substrate. As to conditions: 150 units of CYP11B1, 11-deoxycortisol as substrate. Type of test: biochemical, cynomolgus monkey. The protocol: The aldosterone synthase and cortisol synthase inhibition assays employ cynomolgus adrenal gland mitochondria as the source of aldosterone synthase (CYP11B2) and cortisol synthase (CYP11B1). Mitochondria are prepared from frozen cynomolgus monkey adrenal glands according to Method A described in by J. D. McGarry et al. (Biochem. J., 1983, 214, 21-28), with a final resuspension in the AT buffer described in R. Yamaguchi et al. (Cell Death and Differentiation, 2007, 14, 616-624), frozen as aliquots in liquid nitrogen and stored at −80° C. until use. One unit of CYP11B2 and CYP11B1 activity in these preparations is defined as the amount of enzyme that generates 1 pmol of product in one hour under the conditions described.
Assays are performed as for aldosterone synthase except for the use of 150 units of CYP11B1, 11-deoxycortisol as substrate and cortisol measured as product.

For test [2], the target named is T1, aldosterone synthase (CYP11B2) (Macaca fascicularis, UniProt A0A2K5UPL9).
T1 construct: employ cynomolgus adrenal gland mitochondria as the source of aldosterone synthase (CYP11B2); from tissue; host or cells: cynomolgus monkey adrenal gland mitochondria
T1 sequence (A0A2K5UPL9 1-503): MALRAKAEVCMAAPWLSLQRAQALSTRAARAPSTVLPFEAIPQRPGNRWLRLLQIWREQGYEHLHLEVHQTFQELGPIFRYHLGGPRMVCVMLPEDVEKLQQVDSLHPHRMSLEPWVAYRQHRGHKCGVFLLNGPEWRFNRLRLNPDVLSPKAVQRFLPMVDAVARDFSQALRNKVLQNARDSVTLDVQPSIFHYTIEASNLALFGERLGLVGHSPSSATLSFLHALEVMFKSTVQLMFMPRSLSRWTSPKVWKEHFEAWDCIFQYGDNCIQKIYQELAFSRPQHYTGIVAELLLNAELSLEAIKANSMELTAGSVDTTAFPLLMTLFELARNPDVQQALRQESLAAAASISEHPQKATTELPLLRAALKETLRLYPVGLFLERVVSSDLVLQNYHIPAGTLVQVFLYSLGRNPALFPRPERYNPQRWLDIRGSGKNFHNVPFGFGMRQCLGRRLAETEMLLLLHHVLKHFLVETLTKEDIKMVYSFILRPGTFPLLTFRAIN
Description: Inhibition of aldosterone synthase, cynomolgus adrenal mitochondria, aldosterone quantified by mass spectrometry. In kind it is biochemical, cynomolgus monkey. The following applies: 2 μM corticosterone, 90 minutes at 37° C. The protocol:
The aldosterone synthase and cortisol synthase inhibition assays employ cynomolgus adrenal gland mitochondria as the source of aldosterone synthase (CYP11B2) and cortisol synthase (CYP11B1). […] One unit of CYP11B2 and CYP11B1 activity in these preparations is defined as the amount of enzyme that generates 1 pmol of product in one hour under the conditions described.
The compounds of the invention may be evaluated for aldosterone synthase inhibition by the following assay:
Assays are performed in 96-well format in a final volume of 60 microL/well, containing 100 mM potassium phosphate, pH 7.4, 1% (v/v) DMSO, and additionally, 2 μM of corticosterone and 50 units of CYP11B2 activity. Reactions are started by the addition of NADPH to 1 mM and allowed to proceed for 90 minutes at 37° C. Reactions are terminated by the addition of 60 μL of MeCN containing an internal standard for mass spectrometry. One hundred microliters are then transferred to a glass filter plate and centrifuged at 570×g for 5 minutes and the filtrate is collected. Reaction product aldosterone is quantified by mass spectrometry. To determine the assay blank value (0% activity), NADPH is omitted from some reactions.
(§1) Dose dependent inhibition is quantified by the inclusion of compound at various concentrations. Maximum activity (100%) is defined by reactions containing NADPH, but without compound.

The target of a further test is T2, rhCYP17A1 (Homo sapiens, UniProt P05093).
T2 construct: purchased Cypex
T2 sequence (P05093 1-508): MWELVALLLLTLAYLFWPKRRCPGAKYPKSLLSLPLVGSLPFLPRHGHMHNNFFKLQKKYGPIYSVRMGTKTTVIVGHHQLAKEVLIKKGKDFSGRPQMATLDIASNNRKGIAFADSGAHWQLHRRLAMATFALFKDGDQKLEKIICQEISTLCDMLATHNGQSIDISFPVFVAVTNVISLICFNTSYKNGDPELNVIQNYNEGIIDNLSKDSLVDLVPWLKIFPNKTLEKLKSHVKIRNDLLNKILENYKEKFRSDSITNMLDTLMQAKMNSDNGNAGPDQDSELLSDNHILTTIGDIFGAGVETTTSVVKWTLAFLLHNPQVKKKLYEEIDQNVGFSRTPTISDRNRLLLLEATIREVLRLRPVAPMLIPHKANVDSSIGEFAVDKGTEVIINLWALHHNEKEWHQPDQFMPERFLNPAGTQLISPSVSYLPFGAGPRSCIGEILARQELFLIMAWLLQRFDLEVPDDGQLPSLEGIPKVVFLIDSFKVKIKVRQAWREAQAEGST
Description: Inhibition of CYP17A1, progesterone to 17-α-hydroxyprogesterone, mass spectrometry. In kind it is biochemical. The following applies: rhCYP17A1, 150 nM progesterone, 15 minutes at 37° C.; read-out: CYP17A1 IC50. As for the experimental part:
Compounds of the invention may also be evaluated for inhibition of CYP17A1 via the following assay:
Reactions are started by the addition of NADPH to 1 mM and allowed to proceed for 15 minutes at 37° C. Reactions are terminated by the addition of 40 μL of MeCN containing an internal standard for mass spectrometry. The plates are centrifuged at 3000 rpm for 5 min and the reaction product 17-α-hydroxyprogesterone is quantified by mass spectrometry. To determine the assay blank value (0% activity), NADPH is omitted from some reactions.
as §1

The target in another test is T3, CYP19A1 (Homo sapiens, UniProt P11511).
T3 sequence (P11511 1-503): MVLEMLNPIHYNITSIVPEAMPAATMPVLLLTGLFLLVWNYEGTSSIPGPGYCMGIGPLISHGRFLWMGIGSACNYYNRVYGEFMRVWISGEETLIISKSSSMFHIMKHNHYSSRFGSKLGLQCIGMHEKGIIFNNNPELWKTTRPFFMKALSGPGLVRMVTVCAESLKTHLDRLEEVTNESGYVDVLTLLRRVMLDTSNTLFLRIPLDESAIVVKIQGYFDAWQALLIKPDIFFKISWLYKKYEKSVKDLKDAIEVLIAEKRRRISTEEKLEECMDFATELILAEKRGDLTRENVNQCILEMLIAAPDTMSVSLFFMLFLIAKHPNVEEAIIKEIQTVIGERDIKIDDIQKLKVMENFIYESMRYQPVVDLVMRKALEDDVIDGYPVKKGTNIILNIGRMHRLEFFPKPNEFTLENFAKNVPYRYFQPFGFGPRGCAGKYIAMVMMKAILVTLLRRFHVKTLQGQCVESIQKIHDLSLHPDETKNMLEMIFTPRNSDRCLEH
Description: Inhibition of CYP19A1 (Kragie et al.). Type of test: biochemical. As to conditions: read-out: CYP19A1 IC50.

[3] abbreviates: Cortisol Inhibition IC50, cynomolgus adrenal mitochondria.
The mark [4] stands for this setting: cynomolgus adrenal mitochondria, read-out: Cortisol Inhibition IC50.

Like-named read-outs stand apart in the source and are kept apart here. A value given as a limit tells only on which side of the number the result lay.

With `Cc1cc(C#N)ccc1-n1cnc2c1C(=O)OC(C)(C)C2` [Compound 13, 4-{6,6-dimethyl-4-oxo-3H,4H,6H,7H-pyrano[3,4-d]imidazol-3-yl}-3-methylbenzonitrile], the IC50 in test [1] (setting [3]) is 2.2 µM; in test [2], 0.0063 µM; at rhCYP17A1 it was above 20 µM; on CYP19A1, above 20 µM.
Regarding `CC1(C(=O)O)Cc2ncn(-c3ccc(C#N)c(Cl)c3)c2C(=O)O1` (stereo not shown) [Compound 44, 3-(3-Chloro-4-cyano-phenyl)-6-methyl-4-oxo-3,4,6,7-tetrahydro-pyrano[3,4-d]imidazole-6-carboxylic acid], the IC50 in test [1] (setting [3]) was above 30 µM; in test [2], 0.67 µM; on rhCYP17A1, above 20 µM; at CYP19A1 it was above 20 µM.
As for `CC1(C)Cc2ncn([C@H]3CC[C@H](C#N)CC3)c2C(=O)O1` [Compound 28, trans-4-(6,6-Dimethyl-4-oxo-6,7-dihydro-4H-pyrano[3,4-d]imidazol-3-yl)-cyclohexanecarbonitrile], the IC50 in test [1] (setting [4]) is 16 µM; in test [2], 0.075 µM; at rhCYP17A1, above 20 µM; at CYP19A1 it was above 20 µM.
For `CC1(C)Cc2ncn(-c3ccc(C#N)cc3Cl)c2C(=O)O1` [Compound 18, 3-chloro-4-{6,6-dimethyl-4-oxo-3H,4H,6H,7H-pyrano[3,4-d]imidazol-3-yl}benzonitrile], the half-inhibitory concentration (IC50) in test [1] (setting [4]) was 4.1 µM; in test [2], 0.017 µM; on rhCYP17A1 it was above 20 µM; at CYP19A1, above 20 µM.
Take `CC1(C)Cc2ncn(-c3cccc(Cl)c3F)c2C(=O)O1` [Compound 8, 3-(3-chloro-2-fluorophenyl)-6,6-dimethyl-3H,4H,6H,7H-pyrano[3,4-d]imidazol-4-one]: the IC50 was 5.3 µM in test [1] (setting [4]), 0.035 µM in test [2], above 20 µM at rhCYP17A1 and above 20 µM at CYP19A1.
With `CC1(C)Cc2ncn(-c3ccc(C#N)c(F)c3)c2C(=O)O1` [Compound 10, 4-{6,6-dimethyl-4-oxo-3H,4H,6H,7H-pyrano[3,4-d]imidazol-3-yl}-2-fluorobenzonitrile], the IC50 was 4.2 µM in test [1] (setting [3]), 0.043 µM in test [2], above 20 µM at rhCYP17A1 and above 20 µM at CYP19A1.
Regarding `CC1(CO)Cc2ncn(-c3ccc(Cl)c(Cl)c3)c2C(=O)O1` (single isomer, unassigned) [Compound 30A, 3-(3,4-dichlorophenyl)-6-(hydroxymethyl)-6-methyl-3H,4H,6H,7H-pyrano[3,4-d]imidazol-4-one], the IC50 in test [1] (setting [4]) was 9 µM; in test [2] it was 0.028 µM; on rhCYP17A1, above 20 µM; on CYP19A1, above 20 µM.
As for `CC1(C)Cc2ncn(-c3ccc(C#N)c(Cl)c3)c2C(=O)O1` [Compound 6, 2-chloro-4-{6,6-dimethyl-4-oxo-3H,4H,6H,7H-pyrano[3,4-d]imidazol-3-yl}benzonitrile], the IC50 was 2.5 µM in test [1] (setting [3]), 0.0053 µM in test [2], above 20 µM at rhCYP17A1 and above 20 µM on CYP19A1.
Take `CC1(CO)Cc2ncn(-c3ccc4c(c3)CCO4)c2C(=O)O1` (single isomer, unassigned) [Compound 42B, 3-(2,3-Dihydro-benzofuran-5-yl)-6-hydroxymethyl-6-methyl-6,7-dihydro-3H-pyrano[3,4-d]imidazol-4-one]: the IC50 in test [1] (setting [4]) is above 30 µM; in test [2] it was 0.076 µM; on rhCYP17A1, above 20 µM; at CYP19A1, above 20 µM.
As to `Cc1cc(C#N)ccc1-n1cnc2c1C(=O)OC(C)(CO)C2` (single isomer, unassigned) [Compound 31B, 4-[6-(hydroxymethyl)-6-methyl-4-oxo-3H,4H,6H,7H-pyrano[3,4-d]imidazol-3-yl]-3-methylbenzonitrile], the IC50 was 24 µM in test [1] (setting [4]), 0.21 µM in test [2], above 20 µM at rhCYP17A1 and above 20 µM at CYP19A1.
Take `CC1(C)Cc2ncn(-c3ccc(C#N)cc3)c2C(=O)O1` [Compound 3, 4-{6,6-dimethyl-4-oxo-3H,4H,6H,7H-pyrano[3,4-d]imidazol-3-yl}benzonitrile]: the 50% inhibitory concentration (IC50) in test [1] (setting [4]) was 8.7 µM; in test [2], 0.035 µM; at rhCYP17A1, above 20 µM; on CYP19A1, above 20 µM.
In the case of `CC1Cc2ncn(-c3ccc(C#N)c(Cl)c3)c2C(=O)O1` (single isomer, unassigned) [Compound 15B, 2-chloro-4-[6-methyl-4-oxo-3H,4H,6H,7H-pyrano[3,4-d]imidazol-3-yl]benzonitrile], the IC50 was found to be 6.4 µM in test [1] (setting [3]) and 0.012 µM in test [2].
In the case of `CC1(C)Cc2ncn(C3Cc4ccccc4C3)c2C(=O)O1` [Compound 26], the 50% inhibitory concentration (IC50) in test [1] (setting [4]) was 25 µM; in test [2], 0.064 µM.
The corresponding values for `CC1(CO)Cc2ncn(-c3ccc4c(c3)CCO4)c2C(=O)O1` (single isomer, unassigned) [Compound 42A, 3-(2,3-Dihydro-benzofuran-5-yl)-6-hydroxymethyl-6-methyl-6,7-dihydro-3H-pyrano[3,4-d]imidazol-4-one] are above 30 µM and 0.21 µM.
The corresponding values for `CC1(CO)Cc2ncn(-c3ccc(Cl)cc3)c2C(=O)O1` (single isomer, unassigned) [Compound 38A, 3-(4-chlorophenyl)-6-(hydroxymethyl)-6-methyl-3H,4H,6H,7H-pyrano[3,4-d]imidazol-4-one] are 19 µM and 0.12 µM.
